Data set [1] addresses Glutamic Acid Decarboxylase (GAD). Kind of data set: Glutamic Acid Decarboxylase (GAD) Enzyme Assay. The format is biochemical. The following applies: Rat corpus striatal membranes, [14C]L-Glutamic acid. As to the method: Radioimmunoassay studies were conducted with rat corpus striatal membranes using the following method.
Glutamic Acid Decarboxylase (GAD) Enzyme Assay
Rat corpus striatal membranes
Substrate: [^14 C]L-Glutamic acid (30-80 Ci/mmol)
Reactions are incubated in phosphate/mercapoethanol buffer
6.9) for 30 minutes at 37° C. The reaction is
stopped by the addition
of trichloroacetic acid and placement on ice. Radioactive
trapped in phenylethylamine/methanol and quantitated using
scintillation […] in order to ascertain any
of test compounds with the glutamic acid decarboxylase

Another data set has as its target T1, Histamine (H3) (Rattus norvegicus, UniProt Q9QYN8).
T1 construct: Rat forebrain membranes; from tissue; host or cells: rat forebrain membranes
Kind of data set: Histamine (H3) Binding Assay. The following applies: 10^-6 M; Rat forebrain membranes; [3H]N^a-methylhistamine 0.2 nM; read-out: Receptor Binding Activity Percent Inhibition Average (N = 2).

Another data set has as its target T2, Dopamine (D1 Central) (Rattus norvegicus, UniProt P18901).
T2 construct: Rat striatal membranes; from tissue; host or cells: rat striatal membranes
Kind of data set: Dopamine (D1 Central) Binding Assay. To be noted: 10^-6 M; Rat striatal membranes; [3H]SCH 23390 0.5 nM.

Data set [2] addresses T3, Benzodiazepine (Peripheral) (Rattus norvegicus, UniProt P16257).
T3 construct: Rat kidney membranes; from tissue; host or cells: rat kidney membranes
Briefly: Benzodiazepine (Peripheral) Binding Assay. The following applies: read-out: Receptor Binding Activity Percent Inhibition Average (N = 2).

Data set [3] addresses T4, Inositol Triphosphate (IP3) (Rattus norvegicus, UniProt P29994).
T4 construct: Rat cerebellar membranes; from tissue; host or cells: rat cerebellar membranes
Briefly: Inositol Triphosphate (IP3) Binding Assay. The following applies: 10^-6 M; Rat cerebellar membranes; [3H]IP3 4.0 nM; read-out: Receptor Binding Activity Percent Inhibition Average (N = 2). On the procedure: Tissue cultures were prepared using standard laboratory practice for the following tissues: human recombinant M1 clone, human recombinant M2 clone, guinea pig striatal membranes, rat cortical membranes, rat striatal membranes, rat forebrain membranes, bovine hippocampal membranes, guinea pig cerebellar membranes, rat kidney membranes, recombinant rat 5HT7 clone, and rat cerebellar membranes.
Inositol Triphosphate (IP3) Binding Assay
Rat cerebellar membranes
Radioligand: [^3 H]IP3 (10-30 Ci/mmol)
Final ligand concentration - [4.0 nM]
D-myo-inositol 1,4,5-triphosphate
Reactions are carried out in 50 mM TRIS-HCl (pH 8.3)
1 mM EDTA at 0° C. for 10 minutes. The reaction is
rapid vacuum filtration onto glass fiber filters.
onto the filters is determined and compared to control
order to ascertain any interactions of test compound with
inositol triphospate binding site.

The test system of data set [4] is Serotonin (Non-Selective). Briefly: Serotonin (Non-Selective) Binding Assay. The following applies: 10^-6 M; Rat cortical membranes; [3H]Lysergic acid diethylamide 5.0 nM.
A further data set relates to Serotonin (5HT1). Briefly: Serotonin (5HT1) Binding Assay. The following applies: 10^-6 M; Rat cortical membranes; [3H]Hydroxytryptamine binoxalate 3.0 nM.
The next data set addresses T5, Histamine (H2) (Cavia porcellus, UniProt P47747).
T5 construct: Guinea pig striatal membranes; from tissue; host or cells: guinea pig striatal membranes
Kind of data set: Histamine (H2) Binding Assay. The following applies: 10^-6 M; Guinea pig striatal membranes; [3H]Tiotidine 4.0 nM; read-out: Receptor Binding Activity Percent Inhibition Average (N = 2). Also noted: species or system Guinea pig.

For data set [5] the following is noted: in the human; in vivo; cited from earlier work.
A further data set concerns the target T6, GABA uptake site (Rattus norvegicus, UniProt P23978).
T6 construct: Rat cortical membranes; from tissue; host or cells: rat cortical membranes
Briefly: biochemical. The following applies: read-out: Receptor Binding Activity Percent Inhibition Average (N = 2).

The target in a further data set is T7, dopamine uptake site (Cavia porcellus, UniProt H0WCX4).
T7 construct: Guinea pig striatal membranes; from tissue; host or cells: guinea pig striatal membranes
T7 sequence (H0WCX4 1-619): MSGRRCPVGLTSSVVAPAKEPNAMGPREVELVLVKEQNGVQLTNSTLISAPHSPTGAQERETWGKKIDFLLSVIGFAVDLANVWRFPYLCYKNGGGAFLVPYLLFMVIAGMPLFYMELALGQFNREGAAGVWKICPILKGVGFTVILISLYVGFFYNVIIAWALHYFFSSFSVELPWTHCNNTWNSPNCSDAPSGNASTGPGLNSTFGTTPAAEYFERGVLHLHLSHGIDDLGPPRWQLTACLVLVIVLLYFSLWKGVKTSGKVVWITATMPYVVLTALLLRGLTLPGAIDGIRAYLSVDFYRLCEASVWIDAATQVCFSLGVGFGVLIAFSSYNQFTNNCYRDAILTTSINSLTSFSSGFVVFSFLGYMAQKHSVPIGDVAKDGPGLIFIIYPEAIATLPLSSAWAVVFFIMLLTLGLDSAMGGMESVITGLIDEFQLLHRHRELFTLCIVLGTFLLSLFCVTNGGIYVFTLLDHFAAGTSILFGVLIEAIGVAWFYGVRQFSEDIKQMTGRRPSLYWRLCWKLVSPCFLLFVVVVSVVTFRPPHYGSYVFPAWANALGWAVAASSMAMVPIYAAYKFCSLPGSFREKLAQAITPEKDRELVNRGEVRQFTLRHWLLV
Briefly: Dopamine Reuptake Binding Assay. The following applies: 10^-6 M; Guinea pig striatal membranes; [3H]WIN,35,428 1.0 nM.

For data set [6], the target named is Glycine (Strychnine Insensitive) (Rattus norvegicus, UniProt P35439). Kind of data set: biochemical. The format is binding. To be noted: read-out: Receptor Binding Activity Percent Inhibition Average (N = 2).
The subject of data set [7] is glutamatergic transmission. To be noted: application to CNS sites in vitro; cited from earlier work.
The target of another data set is T8, Opiate (Delta) (Rattus norvegicus, UniProt P33533).
T8 construct: Rat forebrain membranes; from tissue; host or cells: rat forebrain membranes
T8 sequence (P33533 whole entry): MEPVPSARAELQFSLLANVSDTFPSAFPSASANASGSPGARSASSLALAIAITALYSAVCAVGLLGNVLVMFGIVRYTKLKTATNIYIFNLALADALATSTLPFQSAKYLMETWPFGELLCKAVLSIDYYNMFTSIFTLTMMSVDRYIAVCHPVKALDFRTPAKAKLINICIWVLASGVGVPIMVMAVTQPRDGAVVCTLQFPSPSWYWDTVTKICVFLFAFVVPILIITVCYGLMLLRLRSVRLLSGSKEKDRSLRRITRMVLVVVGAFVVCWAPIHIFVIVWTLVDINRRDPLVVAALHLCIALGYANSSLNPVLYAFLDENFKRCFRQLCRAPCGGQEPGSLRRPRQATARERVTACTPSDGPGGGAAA
Briefly: Opiate (Delta) Binding Assay. To be noted: read-out: Receptor Binding Activity Percent Inhibition Average (N = 2).

In another data set the target is T9, Serotonin (5HT1A) (Bos taurus, UniProt F6Q2H9).
T9 construct: Bovine hippocampal membranes; from tissue; host or cells: bovine hippocampal membranes
T9 sequence (F6Q2H9 1-422): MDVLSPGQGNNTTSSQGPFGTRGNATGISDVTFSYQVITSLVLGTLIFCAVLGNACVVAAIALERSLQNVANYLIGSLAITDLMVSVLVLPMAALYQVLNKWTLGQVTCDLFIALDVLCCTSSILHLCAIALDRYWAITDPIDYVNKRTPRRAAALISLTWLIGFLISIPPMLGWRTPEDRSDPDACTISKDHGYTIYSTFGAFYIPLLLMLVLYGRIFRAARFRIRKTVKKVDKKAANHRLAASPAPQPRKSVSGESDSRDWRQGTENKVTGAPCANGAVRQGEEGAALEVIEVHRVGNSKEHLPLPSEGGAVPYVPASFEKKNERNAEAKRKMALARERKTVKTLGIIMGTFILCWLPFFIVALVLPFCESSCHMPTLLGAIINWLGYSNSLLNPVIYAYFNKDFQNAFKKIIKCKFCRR
Briefly: Serotonin (5HT1A) Binding Assay. Also noted: species or system Bovine. To be noted: 10^-6 M; Bovine hippocampal membranes; [3H]-8-OH-DPAT 1.0 nM; read-out: Receptor Binding Activity Percent Inhibition Average (N = 2).

Data set [8] addresses T10, recombinant Rat 5HT7 Clone (Rattus norvegicus, UniProt P32305).
T10 construct: expressed in transfected cells
Kind of data set: Serotonin--5HT7 Clone Binding Assay. The following applies: 10^-6 M, [3H]LSD 2.0 nM, read-out: Receptor Binding Activity Percent Inhibition Average (N = 2).

Data set [9] deals with T11, Human recombinant M2 clone (Homo sapiens, UniProt P08172).
T11 construct: expressed in transfected cells
T11 sequence (P08172 1-466): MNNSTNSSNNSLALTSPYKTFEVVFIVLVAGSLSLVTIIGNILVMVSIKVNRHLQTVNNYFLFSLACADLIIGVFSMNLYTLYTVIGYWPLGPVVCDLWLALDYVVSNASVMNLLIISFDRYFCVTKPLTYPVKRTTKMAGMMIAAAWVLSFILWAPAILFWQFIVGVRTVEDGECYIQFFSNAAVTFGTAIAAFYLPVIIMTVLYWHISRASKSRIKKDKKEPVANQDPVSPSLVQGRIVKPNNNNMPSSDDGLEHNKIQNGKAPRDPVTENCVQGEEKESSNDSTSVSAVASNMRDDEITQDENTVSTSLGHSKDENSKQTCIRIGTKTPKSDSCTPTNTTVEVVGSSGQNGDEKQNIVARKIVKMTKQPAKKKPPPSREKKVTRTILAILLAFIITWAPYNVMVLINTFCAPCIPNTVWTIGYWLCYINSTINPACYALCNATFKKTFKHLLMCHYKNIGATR
Kind of data set: Muscarinic--M2 Clone Binding Assay. To be noted: read-out: Receptor Binding Activity Percent Inhibition Average (N = 2).

T1 sequence (Q9QYN8 whole entry): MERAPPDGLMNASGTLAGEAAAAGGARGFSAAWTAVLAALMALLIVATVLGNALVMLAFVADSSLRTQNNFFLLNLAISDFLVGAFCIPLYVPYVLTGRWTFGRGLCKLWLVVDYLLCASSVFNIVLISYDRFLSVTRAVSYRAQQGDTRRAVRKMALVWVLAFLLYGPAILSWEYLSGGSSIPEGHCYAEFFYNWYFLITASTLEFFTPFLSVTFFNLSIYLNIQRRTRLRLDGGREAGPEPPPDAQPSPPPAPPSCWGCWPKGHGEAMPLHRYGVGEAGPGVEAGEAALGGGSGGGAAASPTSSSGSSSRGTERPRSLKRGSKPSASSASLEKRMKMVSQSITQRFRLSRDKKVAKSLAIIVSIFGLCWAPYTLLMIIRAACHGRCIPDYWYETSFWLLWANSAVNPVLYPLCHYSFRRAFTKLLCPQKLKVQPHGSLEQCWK
T2 sequence (P18901 whole entry): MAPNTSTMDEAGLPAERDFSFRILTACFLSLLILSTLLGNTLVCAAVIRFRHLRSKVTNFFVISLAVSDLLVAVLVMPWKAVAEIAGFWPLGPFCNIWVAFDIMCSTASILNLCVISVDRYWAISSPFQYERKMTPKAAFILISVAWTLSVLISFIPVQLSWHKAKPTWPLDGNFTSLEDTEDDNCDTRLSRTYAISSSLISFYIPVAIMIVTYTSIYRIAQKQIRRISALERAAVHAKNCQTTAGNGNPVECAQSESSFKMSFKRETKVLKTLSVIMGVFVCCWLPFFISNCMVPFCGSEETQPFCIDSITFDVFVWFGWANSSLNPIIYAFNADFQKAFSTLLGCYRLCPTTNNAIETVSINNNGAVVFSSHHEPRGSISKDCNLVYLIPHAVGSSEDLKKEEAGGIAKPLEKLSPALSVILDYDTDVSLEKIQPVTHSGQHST
T10 sequence (P32305 whole entry): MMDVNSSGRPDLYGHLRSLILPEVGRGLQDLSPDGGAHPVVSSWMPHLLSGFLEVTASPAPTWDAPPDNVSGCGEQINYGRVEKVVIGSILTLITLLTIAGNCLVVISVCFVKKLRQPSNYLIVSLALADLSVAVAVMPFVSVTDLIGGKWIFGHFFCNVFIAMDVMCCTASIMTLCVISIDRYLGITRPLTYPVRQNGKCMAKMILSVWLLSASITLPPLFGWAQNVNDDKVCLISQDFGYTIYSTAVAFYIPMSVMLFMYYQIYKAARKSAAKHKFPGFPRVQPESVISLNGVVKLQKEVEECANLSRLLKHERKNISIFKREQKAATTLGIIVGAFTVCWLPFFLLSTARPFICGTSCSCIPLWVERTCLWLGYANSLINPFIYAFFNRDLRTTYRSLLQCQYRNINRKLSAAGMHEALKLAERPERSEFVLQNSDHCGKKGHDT
T5 sequence (P47747 whole entry): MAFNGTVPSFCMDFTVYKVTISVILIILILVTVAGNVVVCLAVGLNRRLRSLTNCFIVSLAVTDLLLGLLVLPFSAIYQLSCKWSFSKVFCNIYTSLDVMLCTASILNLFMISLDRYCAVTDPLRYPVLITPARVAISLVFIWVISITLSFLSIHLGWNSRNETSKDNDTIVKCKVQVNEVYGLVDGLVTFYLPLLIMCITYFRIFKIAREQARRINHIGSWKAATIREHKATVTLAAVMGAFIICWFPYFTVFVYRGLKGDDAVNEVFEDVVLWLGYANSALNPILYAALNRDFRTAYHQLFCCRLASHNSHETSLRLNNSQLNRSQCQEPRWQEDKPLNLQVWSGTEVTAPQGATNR
T3 sequence (P16257 whole entry): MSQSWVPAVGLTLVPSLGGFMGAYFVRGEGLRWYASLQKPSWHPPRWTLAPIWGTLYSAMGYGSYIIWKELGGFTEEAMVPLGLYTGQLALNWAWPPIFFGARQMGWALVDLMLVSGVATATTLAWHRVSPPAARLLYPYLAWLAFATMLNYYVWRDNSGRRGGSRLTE

On to `NOCC(=O)O` [(Amino-oxy)Acetic Acid], for which, in [1] (reference compound), the Ki amounted to 3.55 µM.

For `CN1CCCC1c1cccnc1` (stereo not drawn) [Nicotine, reference compound], the inhibition at 1 µM on Histamine (H3) turned out to be 13.5%; in [2], 3.1%; in [3], 3.2%; at Histamine (H2), 45.9%; at GABA uptake site, 12.1%; in data set [6], 1.5%. In addition, the inhibition at 1 µM turned out to be 10.1% at Opiate (Delta), 3.3% at Serotonin (5HT1A), 8% in data set [8] and 4.4% in [9]. The “Receptor Binding Activity Percent Inhibition Average (N = 2)” value at Dopamine (D1 Central) is 2.6%; in data set [4], 6.3%; in the data set with Serotonin (5HT1) it was -1.4%; at dopamine uptake site it was 9.2%. Moreover, the half-life result in data set [5] was “one to two”. In data set [7], the “amplitude of the evoked currents” value is on record as “more than doubled”. Moreover, the “Percent Inhibition” value in data set [1] (10^-8 M) amounted to 40%.
